Reference: patent EP0597303A2, “Cephalosporin derivatives” (priority 1992, dated 1994)
Where a name gives a salt, the structure may show the parent alone.

What was measured:
Experiment in all cases: MIC, Agar (Mueller Hinton) Dilution Method
Type in all cases: cell-based
[1] = system: A. calcoaceticus PCI-3; conditions: Acinetobacter calcoaceticus, PCI3, Gram Negative
Outline: (§1)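 Potency against Gram-negative and Gram-positive isolates was scored as MIC in micrograms/ml, using serial agar dilution in Mueller Hinton plates.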

[2] = system: Bacillus megaterium 164; conditions: Priestia megaterium; Bacillus megaterium 164; Gram Positive and Others; read-out: MIC
Outline: as §1

[3] = system: Bacillus subtilis 558; conditions: Bacillus subtilis, 558
Outline: as §1

[4] = system: Cit. freundii EL-1408; conditions: Citrobacter freundii, EL1408; Cit. freundii EL-1408; Gram Negative; read-out: MIC
Outline: as §1

[5] = system: E. coli 2008 E; conditions: Escherichia coli; E. coli 2008 E; Gram Negative; read-out: MIC
Outline: as §1

[6] = system: E. coli 94; conditions: Escherichia coli, Gram Negative
Outline: as §1

[7] = system: E. coli ATCC 25922; conditions: Escherichia coli, ATCC25922; E. coli ATCC 25922; Gram Negative; read-out: MIC
Outline: as §1

[8] = system: E. coli DC-2; conditions: Escherichia coli, DC2, Gram Negative
Outline: as §1

[9] = system: E. coli Leo HA2M4; conditions: Escherichia coli, LEOHA2M4
Outline: as §1

[10] = system: Ent. faecalis ATCC 29212; conditions: Enterococcus faecalis, ATCC29212, Gram Positive and Others
Outline: as §1

[11] = system: Ent. hirae ATCC 8043; conditions: Enterococcus hirae, ATCC8043, Gram Positive and Others
Outline: as §1

[12] = system: Enter. cloacae 4192-2; conditions: Enterobacter cloacae, 41922; Enter. cloacae 4192-2; Gram Negative; read-out: MIC
Outline: as §1

[13] = system: Enter. cloacae 4946; conditions: Enterobacter cloacae, Gram Negative
Outline: as §1

[14] = system: Enter. cloacae 5699; conditions: Enterobacter cloacae, Gram Negative
Outline: as §1

[15] = system: Escherichia coli 257; conditions: Gram Negative
Outline: as §1

[16] = system: K. pneumoniae 369; conditions: Klebsiella pneumoniae; K. pneumoniae 369; Gram Negative; read-out: MIC
Outline: as §1

[17] = system: Klebsiella pneumoniae A; conditions: Gram Negative
Outline: as §1

[18] = system: Micrococcus luteus PCI; conditions: Micrococcus luteus
Outline: as §1

[19] = system: Mycobacterium phlei 78; conditions: Mycolicibacterium phlei; Mycobacterium phlei 78; Gram Positive and Others; read-out: MIC
Outline: as §1

[20] = system: Prot. mirabilis 190; conditions: Proteus mirabilis; Prot. mirabilis 190; Gram Negative; read-out: MIC
Outline: as §1

[21] = system: Prot. mirabilis 2; conditions: Proteus mirabilis; Prot. mirabilis 2; Gram Negative; read-out: MIC
Outline: as §1

[22] = system: Prot. vulgaris 100; conditions: Proteus vulgaris, Gram Negative
Outline: as §1

[23] = system: Prot. vulgaris 1028 BC; conditions: Proteus vulgaris, 1028BC
Outline: as §1

[24] = system: Prov. rettgeri ATCC 9250; conditions: Providencia rettgeri, ATCC9250, Gram Negative
Outline: as §1

[25] = system: Ps. aeruginosa 18SH; conditions: Pseudomonas aeruginosa, constitutive ß-lactamase producer, Gram Negative
Outline: as §1

[26] = system: Ps. aeruginosa 765; conditions: Pseudomonas aeruginosa, Gram Negative
Outline: as §1

[27] = system: Ps. aeruginosa 8780; conditions: Pseudomonas aeruginosa, Gram Negative
Outline: as §1

[28] = system: Ps. aeruginosa B; conditions: Pseudomonas aeruginosa, Gram Negative
Outline: as §1

[29] = system: Ps. aeruginosa K799/61; conditions: Pseudomonas aeruginosa, K799/61
Outline: as §1

[30] = system: Ps. aeruginosa K799/WT; conditions: Pseudomonas aeruginosa, Gram Negative
Outline: as §1

[31] = system: Ps. cepacia 1973 B; conditions: Burkholderia cepacia, Gram Negative
Outline: as §1

[32] = system: Ser. marcescens 1071; conditions: Serratia marcescens; Ser. marcescens 1071; Gram Negative; read-out: MIC
Outline: as §1

[33] = system: Ser. sp. 101; conditions: Ser. sp. 101; Gram Negative; read-out: MIC
Outline: as §1

[34] = system: Staph. aureus 1059B; conditions: Staphylococcus aureus; Staph. aureus 1059B; Gram Positive and Others; read-out: MIC
Outline: as §1

[35] = system: Staph. aureus 67; conditions: Staphylococcus aureus; Staph. aureus 67; methicillin-resistant; Gram Positive and Others; read-out: MIC
Outline: as §1

[36] = system: Staph. aureus 753; conditions: Staphylococcus aureus; Staph. aureus 753; methicillin-resistant; Gram Positive and Others; read-out: MIC
Outline: as §1

[37] = system: Str. pyogenes 503-782; conditions: Streptococcus pyogenes, 503782; Str. pyogenes 503-782; Gram Positive and Others; read-out: MIC
Outline: as §1

[38] = system: Streptococcus pneumoniae 6303; conditions: Streptococcus pneumoniae, 6303
Outline: as §1

[39] = system: Xan. maltophilia 2897B; conditions: Stenotrophomonas maltophilia, Gram Negative
Outline: as §1

SMILES: N#CCC(=O)N[C@@H]1C(=O)N2C(C(=O)O)=C(COC(=O)NC3CCN(c4c(F)cc5c(=O)c(C(=O)O)cn(C6CC6)c5c4F)C3)CS[C@H]12 (stereo partly drawn) [Formula Ib, [6R,7R]-3-[[[[[1-(3-Carboxy-1-cyclopropyl-6,8-difluoro-1,4-dihydro-4-oxo-7-quinolinyl-3-[R,S]-pyrrolidinyl]-amino]carbonyl]oxy]methyl]-7-[(cyanoacetyl)amino]-8-oxo-5-thia-1-azabicyclo[4.2.0]oct-2-ene-2-carboxyiic acid monosodium salt]
- MIC [1]: 0.25 µg/mL
- MIC [2]: 0.0625 µg/mL
- MIC [3]: 0.125 µg/mL
- MIC [4]: 0.25 µg/mL
- MIC [5]: 0.0625 µg/mL
- MIC [6]: 0.125 µg/mL
- MIC [7]: 0.0625 µg/mL
- MIC [8]: 0.25 µg/mL
- MIC [9]: 0.0313 µg/mL
- MIC [10]: 2 µg/mL
- MIC [11]: 2 µg/mL
- MIC [12]: 0.0625 µg/mL
- MIC [13]: 0.125 µg/mL
- MIC [14]: 0.25 µg/mL
- MIC [15]: 0.125 µg/mL
- MIC [16]: 0.25 µg/mL
- MIC [17]: 0.25 µg/mL
- MIC [18]: 0.125 µg/mL
- MIC [19]: 0.25 µg/mL
- MIC [20]: 0.25 µg/mL
- MIC [21]: 0.25 µg/mL
- MIC [22]: 0.25 µg/mL
- MIC [23]: 0.125 µg/mL
- MIC [24]: 0.25 µg/mL
- MIC [25]: 0.5 µg/mL
- MIC [26]: 1 µg/mL
- MIC [27]: 1 µg/mL
- MIC [28]: 0.25 µg/mL
- MIC [29]: 0.125 µg/mL
- MIC [30]: 0.5 µg/mL
- MIC [31]: 2 µg/mL
- MIC [32]: 0.25 µg/mL
- MIC [33]: 0.25 µg/mL
- MIC [34]: 0.25 µg/mL
- MIC [35]: 0.25 µg/mL
- MIC [36]: 0.25 µg/mL
- MIC [37]: 0.0625 µg/mL
- MIC [38]: 0.125 µg/mL
- MIC [39]: 0.25 µg/mL
